Test [1] addresses T1, glucocorticoid receptor (GR) (Homo sapiens, UniProt P04150).
T1 construct: made in house; host or cells: Sf9 cells infected with recombinant baculovirus (cytosol preparation)
T1 sequence (P04150 1-777): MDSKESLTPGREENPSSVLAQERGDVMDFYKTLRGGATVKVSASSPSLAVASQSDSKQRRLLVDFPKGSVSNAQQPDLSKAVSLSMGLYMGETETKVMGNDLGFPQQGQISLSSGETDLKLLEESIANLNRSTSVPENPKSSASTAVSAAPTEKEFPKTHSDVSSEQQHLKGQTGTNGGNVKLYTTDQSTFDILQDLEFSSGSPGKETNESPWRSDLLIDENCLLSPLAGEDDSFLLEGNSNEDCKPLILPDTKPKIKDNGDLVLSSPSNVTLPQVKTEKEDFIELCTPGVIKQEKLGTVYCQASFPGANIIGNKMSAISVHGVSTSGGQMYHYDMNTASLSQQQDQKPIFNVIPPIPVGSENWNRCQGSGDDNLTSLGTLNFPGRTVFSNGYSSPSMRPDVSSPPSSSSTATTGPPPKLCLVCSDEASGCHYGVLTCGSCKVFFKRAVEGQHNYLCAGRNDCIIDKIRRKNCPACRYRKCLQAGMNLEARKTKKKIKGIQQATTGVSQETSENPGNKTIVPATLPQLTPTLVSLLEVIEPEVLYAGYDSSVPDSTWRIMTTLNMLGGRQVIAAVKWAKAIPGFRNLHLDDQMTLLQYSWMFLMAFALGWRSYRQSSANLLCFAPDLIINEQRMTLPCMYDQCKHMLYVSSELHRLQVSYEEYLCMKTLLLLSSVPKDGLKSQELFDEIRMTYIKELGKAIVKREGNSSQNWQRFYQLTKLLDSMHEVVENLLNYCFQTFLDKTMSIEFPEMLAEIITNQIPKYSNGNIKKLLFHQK
Put plainly: Binding to the glucocorticoid receptor, recombinantly produced receptor, cytosol preparations of Sf9 cells, reference [3H]-dexamethasone. Particulars: recombinant GR. The source says: (§1) The binding of substances to the glucocorticoid receptor (GR) and other steroid hormone-receptors (mineral corticoid receptors (MR), progesterone receptors (PR) and androgen receptors (AR)) is examined with the aid of recombinantly produced receptors. Cytosol preparations of Sf9 cells, which had been infected with recombinant baculoviruses that code for the GR, are used for the binding tests. In comparison to the reference substance [^3H]-dexamethasone, the substances show a high affinity to the GR.

For test [2], the target named is T2, progesterone receptors (PR) (Homo sapiens, UniProt P06401).
T2 construct: made in house
T2 sequence (P06401 1-933): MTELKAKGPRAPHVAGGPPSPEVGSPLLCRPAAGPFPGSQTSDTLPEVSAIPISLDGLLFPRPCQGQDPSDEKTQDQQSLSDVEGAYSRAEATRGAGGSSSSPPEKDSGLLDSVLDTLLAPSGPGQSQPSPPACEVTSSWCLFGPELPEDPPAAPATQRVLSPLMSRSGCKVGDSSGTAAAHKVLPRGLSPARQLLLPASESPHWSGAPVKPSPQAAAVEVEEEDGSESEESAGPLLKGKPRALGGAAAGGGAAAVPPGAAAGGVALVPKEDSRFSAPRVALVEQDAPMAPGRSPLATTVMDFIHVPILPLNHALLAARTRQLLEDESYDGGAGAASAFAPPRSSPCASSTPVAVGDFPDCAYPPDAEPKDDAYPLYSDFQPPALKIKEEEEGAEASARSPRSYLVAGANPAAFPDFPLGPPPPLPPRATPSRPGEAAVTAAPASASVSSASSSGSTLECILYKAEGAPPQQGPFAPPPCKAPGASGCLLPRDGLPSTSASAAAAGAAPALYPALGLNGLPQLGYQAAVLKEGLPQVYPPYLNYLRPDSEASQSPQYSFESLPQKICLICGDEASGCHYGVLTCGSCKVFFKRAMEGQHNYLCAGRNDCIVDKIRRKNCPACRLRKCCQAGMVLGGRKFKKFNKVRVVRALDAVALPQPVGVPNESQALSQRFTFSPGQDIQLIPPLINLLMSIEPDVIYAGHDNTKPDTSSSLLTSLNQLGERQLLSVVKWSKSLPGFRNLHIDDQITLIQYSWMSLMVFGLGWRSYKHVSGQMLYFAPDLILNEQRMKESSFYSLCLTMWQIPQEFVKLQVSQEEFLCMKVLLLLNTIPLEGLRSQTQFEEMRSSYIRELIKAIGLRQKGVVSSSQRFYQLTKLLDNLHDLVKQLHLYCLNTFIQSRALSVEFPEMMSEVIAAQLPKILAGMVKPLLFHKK
Put plainly: Binding to other steroid hormone receptors with recombinantly produced receptors: progesterone receptor.
Source text: as §1

The test system of test [3] is secretion of the cytokine IL-8, triggered by lipopolysaccharide (LPS), in the human monocyte cell line THP-1. Put plainly: Inhibition of LPS-triggered secretion of the cytokine IL-8 in THP-1 cells (ELISA of supernatant). The test is classed as cell-based. Particulars: LPS-triggered IL-8 secretion. As to the method: The concentration of the cytokines was determined in the supernatant by means of commercially available ELISA kits.

Some results are limits rather than exact numbers.

Broadly, the IC50 is the point on the concentration scale where inhibition reaches its midpoint. Consider `Cc1ncc2c(NC3c4cc(C)c(F)c(O)c4C(C)(C)CC3(O)C(F)(F)F)ccc(F)c2n1` (racemic) [Example 285, 6-Fluoro-1-[(8-fluoro-2-methylquinazolin-5-yl)amino]-4,4,7-trimethyl-2-(trifluoromethyl)-1,2,3,4-tetrahydronaphthalene-2,5-diol], for which the concentration for half-maximal inhibition (IC50) was 86 nM in test [1]; greater than 1000 nM in test [2]; 40 nM in test [3] (Homo sapiens, read-out: inhibition IC50(IL8)). Further, the “eff (IL8 inhibition)” value in test [3] was found to be 79%.

Values taken from patent publication US7659297B2, “Tetrahydronaphthalene derivatives, process for their production and their use as anti-inflammatory agents” (Bayer Schering Pharma, AG, priority 2003, dated 2010).
